Test results published in US20120178766A1, “FUROPYRIMIDINEDIONE DERIVATIVES AS TRPAI MODULATORS” (priority 2009, published 2012).

Key:
human TRPA1 = target: T1, human TRPA1 (Homo sapiens, UniProt O75762); assay: 45Calcium uptake assay: inhibition of AITC induced cellular uptake of radioactive calcium, human TRPA1 expressing CHO cells; format: cell-based; conditions: AITC 30 μM; for inhibition at 1 µM: 1.0 μM compound, read-out: human TRPA1 Percentage inhibition at 1.0 μM; for inhibition at 10 µM: 10.0 μM compound, read-out: human TRPA1 Percentage inhibition at 10.0 μM
T1 construct: expressed in transfected cells; host or cells: CHO cells (G-418 selection)
From the text: The illustrative examples of the present invention are screened for TRPA1 activity according to a modified procedure described in (a) Tóth, A. et al. Life Sciences, 2003, 73, 487-498. (b) McNamara C, R. et al, Proc. Natl. Acad. Sci. U.S.A., 2007, 104, 13525-13530. The screening of the compounds can be carried out by other methods and procedures known to persons skilled in the art.
(§1) Screening for TRPA1 Antagonist Using the ^45Calcium Uptake Assay:
(§2) The inhibition of TRPA1 receptor activation was measured as inhibition of allyl isothiocyanate (AITC) induced cellular uptake of radioactive calcium.
Test compounds were dissolved in 100% DMSO to prepare 10 mM stock and then diluted using plain medium with 0.1% BSA and 1.8 mM CaCl2 to get the desired concentration. The final concentration of DMSO in the reaction was 0.5% (v/v). Human TRPA1 expressing CHO cells were grown in F-12 DMEM medium with 10% FBS, 1% penicillin-streptomycin solution, and 400 μg/ml of G-418. Rat TRPA1 expressing CHO cells were grown in F-12 DMEM medium with 10% FBS, 1% penicillin-streptomycin solution, and 400 μg/ml of Zeocin. Cells were seeded 24 h prior to the assay in 96 well plates so as to get ˜50,000 cells per well on the day of experiment. Cells were treated with the test compounds for 10 minutes followed by the addition of AITC at a final concentration of 30 μM (for human TRPA1) and/or 10 μM (for rat TRPA1) and 5 μCi/ml ^45Ca^+2 for 3 minutes. Cells were washed and lysed using a buffer containing 1% Triton X-100, 0.1% deoxycholate and 0.1% SDS. Radioactivity in the lysate was measured in a Packard TopCount after addition of liquid scintillant. (Toth et al, Life Sciences (2003) 73, 487-498; McNamara C R et al, Proceedings of the National Academy of Sciences, (2007) 104, 13525-13530).
(§3) Concentration response curves were plotted as a % of maximal response obtained in the absence of test antagonist. IC50 values can be calculated from concentration response curve by nonlinear regression analysis using GraphPad PRISM software.

rat TRPA1 = target: T2, rat TRPA1 (Rattus norvegicus, UniProt Q6RI86); assay: 45Calcium uptake assay: inhibition of AITC induced cellular uptake of radioactive calcium, rat TRPA1 expressing CHO cells; format: cell-based; conditions: AITC 10 μM; for inhibition at 10 µM: 10.0 μM compound, read-out: rat TRPA1 Percentage inhibition at 10.0 μM; for inhibition at 1 µM: read-out: rat TRPA1 Percentage inhibition; for IC50: class symbols
T2 construct: expressed in transfected cells; host or cells: CHO cells (Zeocin selection)
Experimental: as §1, §2
Test compounds were dissolved in 100% DMSO to prepare 10 mM stock and then diluted using plain medium with 0.1% BSA and 1.8 mM CaCl2 to get the desired concentration. The final concentration of DMSO in the reaction was 0.5% (v/v). […] Rat TRPA1 expressing CHO cells were grown in F-12 DMEM medium with 10% FBS, 1% penicillin-streptomycin solution, and 400 μg/ml of Zeocin. […] Cells were treated with the test compounds for 10 minutes followed by the addition of AITC at a final concentration of 30 μM (for human TRPA1) and/or 10 μM (for rat TRPA1) and 5 μCi/ml ^45Ca^+2 for 3 minutes. Cells were washed and lysed using a buffer containing 1% Triton X-100, 0.1% deoxycholate and 0.1% SDS. Radioactivity in the lysate was measured in a Packard TopCount after addition of liquid scintillant.
as §3

T1 sequence (O75762 whole entry): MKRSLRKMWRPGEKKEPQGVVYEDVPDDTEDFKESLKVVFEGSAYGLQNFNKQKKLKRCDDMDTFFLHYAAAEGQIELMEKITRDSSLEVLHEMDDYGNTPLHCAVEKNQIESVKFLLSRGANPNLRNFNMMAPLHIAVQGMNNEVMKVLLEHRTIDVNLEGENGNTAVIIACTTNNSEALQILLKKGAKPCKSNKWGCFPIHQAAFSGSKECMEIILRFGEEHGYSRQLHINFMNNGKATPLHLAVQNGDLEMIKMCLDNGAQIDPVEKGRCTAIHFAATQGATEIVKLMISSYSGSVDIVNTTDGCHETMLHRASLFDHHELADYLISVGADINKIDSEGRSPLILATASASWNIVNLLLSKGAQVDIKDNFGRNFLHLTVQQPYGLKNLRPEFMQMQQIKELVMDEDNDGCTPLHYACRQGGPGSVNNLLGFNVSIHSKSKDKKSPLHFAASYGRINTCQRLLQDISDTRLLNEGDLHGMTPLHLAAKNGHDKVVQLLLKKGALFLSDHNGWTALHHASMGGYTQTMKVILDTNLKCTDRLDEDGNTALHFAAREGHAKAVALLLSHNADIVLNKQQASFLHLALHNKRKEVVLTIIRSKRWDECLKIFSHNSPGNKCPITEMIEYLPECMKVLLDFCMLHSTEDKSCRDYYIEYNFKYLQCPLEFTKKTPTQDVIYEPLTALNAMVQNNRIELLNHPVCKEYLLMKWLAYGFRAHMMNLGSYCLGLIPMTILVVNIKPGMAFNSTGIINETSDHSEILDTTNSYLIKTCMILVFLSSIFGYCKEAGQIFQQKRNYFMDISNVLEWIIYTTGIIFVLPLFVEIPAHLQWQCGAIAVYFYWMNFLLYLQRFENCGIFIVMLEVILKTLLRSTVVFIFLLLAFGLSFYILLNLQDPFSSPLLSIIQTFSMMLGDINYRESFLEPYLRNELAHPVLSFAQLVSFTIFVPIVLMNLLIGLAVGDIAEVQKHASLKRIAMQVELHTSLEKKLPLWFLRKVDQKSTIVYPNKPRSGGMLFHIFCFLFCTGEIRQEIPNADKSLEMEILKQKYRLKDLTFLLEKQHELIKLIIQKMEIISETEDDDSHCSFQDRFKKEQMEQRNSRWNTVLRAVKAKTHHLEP
T2 sequence (Q6RI86 whole entry): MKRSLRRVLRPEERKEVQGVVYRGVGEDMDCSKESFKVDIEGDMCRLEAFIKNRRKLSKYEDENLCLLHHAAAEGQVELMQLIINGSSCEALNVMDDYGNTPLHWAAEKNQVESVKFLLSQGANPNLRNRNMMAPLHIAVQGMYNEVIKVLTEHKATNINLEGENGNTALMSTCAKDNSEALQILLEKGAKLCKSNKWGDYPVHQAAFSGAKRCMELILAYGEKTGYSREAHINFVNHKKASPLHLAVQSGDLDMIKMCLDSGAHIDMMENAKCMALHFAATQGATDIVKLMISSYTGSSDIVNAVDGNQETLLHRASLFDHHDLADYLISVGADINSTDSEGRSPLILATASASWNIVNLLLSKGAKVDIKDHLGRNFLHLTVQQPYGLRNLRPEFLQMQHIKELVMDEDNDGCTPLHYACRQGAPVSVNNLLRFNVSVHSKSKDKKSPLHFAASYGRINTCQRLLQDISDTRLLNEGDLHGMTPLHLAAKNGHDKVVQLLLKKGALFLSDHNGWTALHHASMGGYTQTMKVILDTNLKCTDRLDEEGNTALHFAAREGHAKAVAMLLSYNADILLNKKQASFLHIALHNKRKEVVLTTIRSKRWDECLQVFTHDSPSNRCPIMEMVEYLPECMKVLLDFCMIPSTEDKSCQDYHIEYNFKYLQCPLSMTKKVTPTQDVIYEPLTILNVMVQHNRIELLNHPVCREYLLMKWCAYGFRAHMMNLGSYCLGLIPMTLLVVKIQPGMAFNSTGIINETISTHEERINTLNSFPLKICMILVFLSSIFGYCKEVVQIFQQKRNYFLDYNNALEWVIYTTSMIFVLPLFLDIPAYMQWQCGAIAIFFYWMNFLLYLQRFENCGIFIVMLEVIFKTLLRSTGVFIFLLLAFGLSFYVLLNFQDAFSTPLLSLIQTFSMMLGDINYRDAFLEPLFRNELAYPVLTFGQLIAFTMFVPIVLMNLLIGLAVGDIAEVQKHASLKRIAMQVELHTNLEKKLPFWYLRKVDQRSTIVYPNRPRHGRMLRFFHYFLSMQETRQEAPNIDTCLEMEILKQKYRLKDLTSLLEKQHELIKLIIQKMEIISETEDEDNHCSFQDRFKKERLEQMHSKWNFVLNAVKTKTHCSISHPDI

Compound | IC50 (human TRPA1; class symbols) | inhibition at 10 µM (rat TRPA1) | inhibition at 1 µM (rat TRPA1) | inhibition at 1 µM (human TRPA1) | inhibition at 10 µM (human TRPA1) | IC50 (rat TRPA1) | IC50 (human TRPA1; numeric values)
Cn1c(=O)c2c(CC(=O)Nc3ccc(Oc4ccc(C(F)(F)F)cc4)cc3)coc2n(C)c1=O [Example 1, N1-[4-(4-Trifluoromethylphenoxy)phenyl]-2-(1,3-dimethyl-2,4-dioxo-1,2,3,4-tetrahydrofuro[2,3-d]pyrimidin-5-yl)acetamide] | > 100 nM | 100% | 96.7% |  |  |  | 
Cn1c(=O)c2c(CC(=O)NCCc3ccc(Cl)cc3Cl)coc2n(C)c1=O [Example 2, N1-[2-(2,4-Dichlorophenyl)ethyl]-2-(1,3-dimethyl-2,4-dioxo-1,2,3,4-tetrahydrofuro[2,3-d]pyrimidin-5-yl)acetamide] |  |  |  | 17.7% | 28.4% |  | 
Cn1c(=O)c2c(CC(=O)Nc3nc(C(F)(F)F)cs3)coc2n(C)c1=O [Example 3, N1-[4-(Trifluoromethyl)-1,3-thiazol-2-yl]-2-(1,3-Dimethyl-2,4-dioxo-1,2,3,4-tetrahydrofuro[2,3-d]pyrimidin-5-yl)acetamide] |  |  |  | 6.44% | 45.8% |  | 
Cn1c(=O)c2c(CC(=O)Nc3nc4c(F)cc(F)cc4s3)coc2n(C)c1=O [Example 4, N-(4,6-Difluoro-1,3-benzothiazol-2-yl)-2-(1,3-dimethyl-2,4-dioxo-1,2,3,4-tetrahydrofuro[2,3-d]pyrimidin-5-yl)acetamide] |  |  |  | 14.5% | 57.3% |  | 
CC(C)Cc1ccc(-c2csc(NC(=O)Cc3coc4c3c(=O)n(C)c(=O)n4C)n2)cc1 [Example 5, N1-[4-(4-Isobutylphenyl)-1,3-thiazol-2-yl]-2-(1,3-dimethyl-2,4-dioxo-1,2,3,4-tetrahydrofuro[2,3-d]pyrimidin-5-yl)acetamide] |  |  |  | 27% | 99.8% |  | 
Cn1c(=O)c2c(CC(=O)Nc3nc(-c4ccc(C(F)(F)F)cc4)cs3)coc2n(C)c1=O [Example 6, N1-{4-[4-(Trifluoromethyl)phenyl]-1,3-thiazol-2-yl}-2-(1,3-dimethyl-2,4-dioxo-1,2,3,4-tetrahydrofuro[2,3-d]pyrimidin-5-yl)acetamide] | < 50 nM |  |  | 100% | 99.6% |  | 
Cn1c(=O)c2c(CC(=O)Nc3nc(-c4cccc(C(F)(F)F)c4)cs3)coc2n(C)c1=O [Example 7, N1-{4-[3-(Trifluoromethyl)phenyl]-1,3-thiazol-2-yl}-2-(1,3-dimethyl-2,4-dioxo-1,2,3,4-tetrahydrofuro[2,3-d]pyrimidin-5-yl)acetamide] | < 50 nM |  |  | 98.8% | 99.8% |  | 
Cn1c(=O)c2c(CC(=O)Nc3nc(-c4ccc(OC(F)(F)F)cc4)cs3)coc2n(C)c1=O [Example 8, N1-[4-(4-Trifluorormethoxyphenyl)-1,3-thiazol-2-yl]-2-(1,3-dimethyl-2,4-dioxo-1,2,3,4-tetrahydrofuro[2,3-d]pyrimidin-5-yl)acetamide] | < 50 nM | 100% | 100% | 93.2% | 98.8% | < 50 nM | 
Cn1c(=O)c2c(CC(=O)Nc3nc(-c4cccc(OC(F)(F)F)c4)cs3)coc2n(C)c1=O [Example 9, N1-[4-(3-Trifluorormethoxyphenyl)-1,3-thiazol-2-yl]-2-(1,3-dimethyl-2,4-dioxo-1,2,3,4-tetrahydrofuro[2,3-d]pyrimidin-5-yl)acetamide] | < 50 nM |  |  | 99.3% | 100% |  | 
Cn1c(=O)c2c(CC(=O)Nc3nc(-c4ccc(F)c(Br)c4)cs3)coc2n(C)c1=O [Example 10, N1-[4-(3-Bromo-4-fluorophenyl)-1,3-thiazol-2-yl]-2-(1,3-dimethyl-2,4-dioxo-1,2,3,4-tetrahydrofuro[2,3-d]pyrimidin-5-yl)acetamide] | < 50 nM | 100% | 97.5% | 98.5% | 97.7% | 50 to 100 nM | 
Cn1c(=O)c2c(CC(=O)Nc3nc(-c4ccc(F)c(F)c4)cs3)coc2n(C)c1=O [Example 11, N1-[4-(3,4-Difluorophenyl)-1,3-thiazol-2-yl]-2-(1,3-dimethyl-2,4-dioxo-1,2,3,4-tetrahydrofuro[2,3-d]pyrimidin-5-yl)acetamide] | 50 to 100 nM |  |  | 98.8% | 99.4% |  | 
Cn1c(=O)c2c(CC(=O)Nc3nc(-c4ccc(F)cc4F)cs3)coc2n(C)c1=O [Example 12, N1-[4-(2,4-Difluorophenyl)-1,3-thiazol-2-yl]-2-(1,3-dimethyl-2,4-dioxo-1,2,3,4-tetrahydrofuro[2,3-d]pyrimidin-5-yl)acetamide] | > 100 nM |  |  | 97.9% | 98.4% |  | 
Cn1c(=O)c2c(CC(=O)Nc3nc(-c4ccc(Cl)c(Cl)c4)cs3)coc2n(C)c1=O [Example 13, N1-[4-(3,4-Dichlorophenyl)-1,3-thiazol-2-yl]-2-(1,3-dimethyl-2,4-dioxo-1,2,3,4-tetrahydrofuro[2,3-d]pyrimidin-5-yl)acetamide] | < 50 nM |  |  | 98.5% | 99.4% | > 100 nM | 
Cn1c(=O)c2c(CC(=O)Nc3nc(-c4ccc(C(F)(F)F)c(F)c4)cs3)coc2n(C)c1=O [Example 14, N1-{4-[3-Fluoro-4-(trifluoromethyl)phenyl]-1,3-thiazol-2-yl}-2-(1,3-dimethyl-2,4-dioxo-1,2,3,4-tetrahydrofuro[2,3-d]pyrimidin-5-yl)acetamide] | < 50 nM | 100% | 100% | 99.4% | 99.7% | < 50 nM | 
Cn1c(=O)c2c(CC(=O)Nc3nc(-c4ccc(OC(F)F)c(Br)c4)cs3)coc2n(C)c1=O [Example 25, N1-[4-(3-Bromo-4-difluoromethoxyphenyl)-1,3-thiazol-2-yl]-2-(1,3-dimethyl-2,4-dioxo-1,2,3,4-tetrahydrofuro[2,3-d]pyrimidin-5-yl)acetamide] | < 50 nM |  |  | 99.3% | 99.8% |  | 
CC(C)COc1ccc(-c2csc(NC(=O)Cc3coc4c3c(=O)n(C)c(=O)n4C)n2)cc1Br [Example 29, N1-[4-(3-Bromo-4-isobutoxyphenyl)-1,3-thiazol-2-yl]-2-(1,3-dimethyl-2,4-dioxo-1,2,3,4-tetrahydrofuro[2,3-d]pyrimidin-5-yl)acetamide] | > 100 nM |  |  | 98.6% | 99.8% |  | 
Cn1c(=O)c2c(CC(=O)Nc3nc(-c4cc(F)c(F)cc4F)cs3)coc2n(C)c1=O [Example 33, N1-[4-(2,4,5,-Trifluorophenyl)-1,3-thiazol-2-yl]-2-(1,3-dimethyl-2,4-dioxo-1,2,3,4-tetrahydrofuro[2,3-d]pyrimidin-5-yl)acetamide] | < 50 nM |  |  | 97.9% | 98.1% |  | 
CC(C)CCOc1c(F)cc(-c2csc(NC(=O)Cc3coc4c3c(=O)n(C)c(=O)n4C)n2)cc1F [Example 45, N1-{4-[3,5-Difluoro-4-(3-methylbutoxy)phenyl]-1,3-thiazol-2-yl}-2-(1,3-dimethyl-2,4-dioxo-1,2,3,4-tetrahydrofuro[2,3-d]pyrimidin-5-yl)acetamide] | < 50 nM |  |  | 90.7% | 98.1% |  | 
Cc1oc2c(c1CC(=O)Nc1nc(-c3cc(F)c(Cl)cc3Cl)cs1)c(=O)n(C)c(=O)n2C [Example 79, N1-[4-(2,4-Dichloro-5-fluorophenyl)-1,3-thiazol-2-yl]-2-(1,3,6-trimethyl-2,4-dioxo-1,2,3,4-tetrahydrofuro[2,3-d]pyrimidin-5-yl)acetamide] |  |  |  |  |  |  | 247 nM
